US20240383886A1, “Protein Tyrosine Phosphatase Degraders and Methods of Use Thereof” (CALICO LIFE SCIENCES LLC, priority 2019, published 2024)

Experiments:
[1] = molecular target: T1, PTPN2 (Homo sapiens, UniProt P17706); experiment: HiBiT-Degradation 293T.109 PTPN2 (Nano-Glo HiBiT Lytic Assay); type: cell-based; conditions: 293T.109 (HiBiT-PTPN2) cells, 24.0 hours
T1 construct: expressed in transfected cells; host or cells: 293T (293T.109 HiBiT-PTPN2 line; parental 293T WT from ATCC)
T1 sequence (P17706 1-415): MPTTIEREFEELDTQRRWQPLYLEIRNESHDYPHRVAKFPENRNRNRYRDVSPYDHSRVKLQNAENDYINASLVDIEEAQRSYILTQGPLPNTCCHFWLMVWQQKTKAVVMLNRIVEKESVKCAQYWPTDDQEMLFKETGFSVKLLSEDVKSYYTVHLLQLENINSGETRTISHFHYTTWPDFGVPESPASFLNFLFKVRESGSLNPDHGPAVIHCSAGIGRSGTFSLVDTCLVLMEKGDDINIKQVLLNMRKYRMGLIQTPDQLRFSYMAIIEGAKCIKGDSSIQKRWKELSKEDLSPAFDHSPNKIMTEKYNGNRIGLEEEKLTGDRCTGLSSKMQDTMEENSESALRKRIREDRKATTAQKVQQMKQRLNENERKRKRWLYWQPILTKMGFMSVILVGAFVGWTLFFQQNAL
Excerpt: Dulbecco's modified Eagle medium (DMEM) without phenol red and fetal bovine serum (FBS) were purchased from Gibco (Grand Island, NY, USA). Nano-Glo® HiBIT Lytic Assay System was purchased from Promega (Madison, WI, USA). 293T.109 (HiBiT-PTPN2) cell line was generated by ectopically expressing PTPN2 with N-terminal HiBiT fusion tag in 293T WT cell line purchased from ATCC (Manassas, VA, USA). Cell culture flasks and 384-well microplates were acquired from VWR (Radnor, PA, USA).
PTPN2 degradation was determined based on quantification of luminescent signal using Nano-Glo® HiBIT Lytic Assay kit. Test compounds were added to the 384-well plate from a top concentration of 10 μM with 11 points, half log titration in duplicates. 293T.109 cells were added into 384-well plates at a cell density of 5000 cells per well. The plates were kept at 37° C. with 5% CO2 for 24 hours. The cells treated in the absence of the test compound were the negative control and the cells without Nano-Glo® HiBiT Lytic reagent were the positive control. After 24-hour incubation, Nano-Glo® HiBIT Lytic Assay reagents were added to the cells. Luminescence was acquired on EnVision™ Multilabel Reader (PerkinElmer, Santa Clara, CA, USA).

[2] = tested on: PTPN2; experiment: HiBiT-Degradation B16F10.4 PTPN2; type: cell-based; conditions: B16F10.4 cells, 24.0 hours

SMILES	DC50 [1]	DC50 [2]
Cn1c(=O)n(C2CCC(=O)NC2=O)c2ccc(C3CCN(C(=O)CCC(=O)NCCOc4ccc5cc(O)c(N6CC(=O)NS6(=O)=O)c(F)c5c4)CC3)cc21 (stereo not shown) [Example 30]	≥ 1000 nM	≥ 1000 nM
O=C1CCC(N2Cc3c(OCC(=O)N4CCC(C(=O)N5CC(Oc6ccc7cc(O)c(N8CC(=O)NS8(=O)=O)c(F)c7c6)C5)CC4)cccc3C2=O)C(=O)N1 (stereo not shown) [Example 32]	200 to 1000 nM	200 to 1000 nM
Cn1c(=O)n(C2CCC(=O)NC2=O)c2cccc(C3CCN(CC(=O)NCCOc4ccc5cc(O)c(N6CC(=O)NS6(=O)=O)c(F)c5c4)CC3)c21 (stereo not shown) [Example 33]	200 to 1000 nM	≥ 1000 nM
O=C1CCC(N2Cc3cc(NCC(=O)N4CCC(C(=O)NCCOc5ccc6cc(O)c(N7CC(=O)NS7(=O)=O)c(F)c6c5)CC4)ccc3C2=O)C(=O)N1 (stereo not shown) [Example 35]	200 to 1000 nM	200 to 1000 nM
O=C1CCC(N2Cc3c(NCC(=O)N4CC(C(=O)NCCOc5ccc6cc(O)c(N7CC(=O)NS7(=O)=O)c(F)c6c5)C4)cccc3C2=O)C(=O)N1 (stereo not shown) [Example 36]	200 to 1000 nM	200 to 1000 nM
CC(C)(Nc1cccc2c1C(=O)N(C1CCC(=O)NC1=O)C2=O)c1cn(CCOCCC(=O)NCCOc2ccc3cc(O)c(N4CC(=O)NS4(=O)=O)c(F)c3c2)nn1 (stereo not shown) [Example 37]	≥ 1000 nM	≥ 1000 nM
O=C(CN1CCC(n2cc(CNc3cccc4c3C(=O)N(C3CCC(=O)NC3=O)C4=O)nn2)CC1)NCCOc1ccc2cc(O)c(N3CC(=O)NS3(=O)=O)c(F)c2c1 (stereo not shown) [Example 40]	200 to 1000 nM	≥ 1000 nM
O=C(CN1CC(n2cc(CNc3cccc4c3C(=O)N(C3CCC(=O)NC3=O)C4=O)nn2)C1)NCCOc1ccc2cc(O)c(N3CC(=O)NS3(=O)=O)c(F)c2c1 (stereo not shown) [Example 42]	200 to 1000 nM	≥ 1000 nM
O=C(CCOCCNC(=O)CNc1cccc2c1CN(C1CCC(=O)NC1=O)C2=O)NCCOc1ccc2cc(O)c(N3CC(=O)NS3(=O)=O)c(F)c2c1 (stereo not shown) [Example 45]	200 to 1000 nM	≥ 1000 nM
O=C(CCOCCOCCNC(=O)CNc1cccc2c1CN(C1CCC(=O)NC1=O)C2=O)NCCOc1ccc2cc(O)c(N3CC(=O)NS3(=O)=O)c(F)c2c1 (stereo not shown) [Example 46]	≥ 1000 nM	≥ 1000 nM
Cn1c(=O)n(C2CCC(=O)NC2=O)c2ccc(C3CCN(C(=O)CNc4ccc5c(F)c(N6CC(=O)NS6(=O)=O)c(O)cc5c4)CC3)cc21 (stereo not shown) [Example 54]	200 to 1000 nM	≥ 1000 nM
O=C1CCC(N2Cc3c(NCc4cn(C5CN(C(=O)Nc6ccc7c(F)c(N8CC(=O)NS8(=O)=O)c(O)cc7c6)C5)nn4)cccc3C2=O)C(=O)N1 (stereo not shown) [Example 57]	200 to 1000 nM	≥ 1000 nM
O=C1CCC(N2C(=O)c3ccc(OCc4cn(CCC(=O)Nc5ccc6c(F)c(N7CC(=O)NS7(=O)=O)c(O)cc6c5)nn4)cc3C2=O)C(=O)N1 (stereo not shown) [Example 60]	200 to 1000 nM	200 to 1000 nM
O=C1CCC(N2C(=O)c3cccc(NCc4cn(CCOCCOCCC(=O)Nc5ccc6c(F)c(N7CC(=O)NS7(=O)=O)c(O)cc6c5)nn4)c3C2=O)C(=O)N1 (stereo not shown) [Example 63]	200 to 1000 nM	≥ 1000 nM
O=C1CCC(N2Cc3c(NCC(=O)N4CCC(C(=O)Nc5ccc6c(F)c(N7CC(=O)NS7(=O)=O)c(O)cc6c5)CC4)cccc3C2=O)C(=O)N1 (stereo not shown) [Example 65]	200 to 1000 nM	200 to 1000 nM
Cn1c(=O)n(C2CCC(=O)NC2=O)c2ccc(C3CCN(CCCC(=O)Nc4ccc5c(F)c(N6CC(=O)NS6(=O)=O)c(O)cc5c4)CC3)cc21 (stereo not shown) [Example 70]	≥ 1000 nM	≥ 1000 nM

Next, values leading:

DC50 [1]	DC50 [2]	SMILES
200 to 1000 nM	≥ 1000 nM	Cn1c(=O)n(C2CCC(=O)NC2=O)c2ccc(C3CCN(C(=O)NCCOc4ccc5cc(O)c(N6CC(=O)NS6(=O)=O)c(F)c5c4)CC3)cc21 (stereo not shown) [Example 31]
≥ 1000 nM	≥ 1000 nM	Cn1c(=O)n(C2CCC(=O)NC2=O)c2ccc(CCC(=O)NCCOc3ccc4cc(O)c(N5CC(=O)NS5(=O)=O)c(F)c4c3)cc21 (stereo not shown) [Example 34]
≥ 1000 nM	≥ 1000 nM	O=C(CCOCCn1cc(C2(Nc3cccc4c3C(=O)N(C3CCC(=O)NC3=O)C4=O)CC2)nn1)NCCOc1ccc2cc(O)c(N3CC(=O)NS3(=O)=O)c(F)c2c1 (stereo not shown) [Example 38]
≥ 1000 nM	≥ 1000 nM	Cn1c(=O)n(C2CCC(=O)NC2=O)c2cccc(C3CCN(CCOCCC(=O)NCCOc4ccc5cc(O)c(N6CC(=O)NS6(=O)=O)c(F)c5c4)CC3)c21 (stereo not shown) [Example 39]
200 to 1000 nM	≥ 1000 nM	O=C(CCC1CCN(C(=O)CNc2cccc3c2C(=O)N(C2CCC(=O)NC2=O)C3=O)CC1)NCCOc1ccc2cc(O)c(N3CC(=O)NS3(=O)=O)c(F)c2c1 (stereo not shown) [Example 41]
≥ 1000 nM	≥ 1000 nM	O=C(CCOCCC(=O)N1CCN(c2ccc(NC3CCC(=O)NC3=O)cc2)CC1)NCCOc1ccc2cc(O)c(N3CC(=O)NS3(=O)=O)c(F)c2c1 (stereo not shown) [Example 43]
≥ 1000 nM	≥ 1000 nM	O=C(CCOCCOCCn1cc(CNc2cccc3c2C(=O)N(C2CCC(=O)NC2=O)C3=O)nn1)NCCOc1ccc2cc(O)c(N3CC(=O)NS3(=O)=O)c(F)c2c1 (stereo not shown) [Example 44]
≥ 1000 nM	≥ 1000 nM	O=C(CCCCCn1cc(CNc2cccc3c2C(=O)N(C2CCC(=O)NC2=O)C3=O)nn1)NCCOc1ccc2cc(O)c(N3CC(=O)NS3(=O)=O)c(F)c2c1 (stereo not shown) [Example 47]
≥ 1000 nM	≥ 1000 nM	O=C(CCOCCn1cc(CNc2cccc3c2C(=O)N(C2CCC(=O)NC2=O)C3=O)nn1)NCCOc1ccc2cc(O)c(N3CC(=O)NS3(=O)=O)c(F)c2c1 (stereo not shown) [Example 48]
≥ 1000 nM	≥ 1000 nM	Cn1c(=O)n(C2CCC(=O)NC2=O)c2ccc(C3CCN(CCNc4ccc5c(F)c(N6CC(=O)NS6(=O)=O)c(O)cc5c4)CC3)cc21 (stereo not shown) [Example 52]
200 to 1000 nM	≥ 1000 nM	Cn1c(=O)n(C2CCC(=O)NC2=O)c2ccc(NC3CCN(CCNc4ccc5c(F)c(N6CC(=O)NS6(=O)=O)c(O)cc5c4)CC3)cc21 (stereo not shown) [Example 53]
200 to 1000 nM	≥ 1000 nM	O=C1CCC(Nc2ccc(C3CCN(CC(=O)Nc4ccc5c(F)c(N6CC(=O)NS6(=O)=O)c(O)cc5c4)CC3)c(F)c2)C(=O)N1 (stereo not shown) [Example 55]
≥ 1000 nM	200 to 1000 nM	Cn1c(=O)n(C2CCC(=O)NC2=O)c2ccc(N3CCC4(CC3)CN(C(=O)c3ccc5c(F)c(N6CC(=O)NS6(=O)=O)c(O)cc5c3)C4)cc21 (stereo not shown) [Example 56]
200 to 1000 nM	≥ 1000 nM	O=C1CCC(N2C(=O)c3cccc(NCc4cn(C5CN(CC(=O)Nc6ccc7c(F)c(N8CC(=O)NS8(=O)=O)c(O)cc7c6)C5)nn4)c3C2=O)C(=O)N1 (stereo not shown) [Example 58]
200 to 1000 nM	≥ 1000 nM	O=C1CCC(N2C(=O)c3cccc(NCc4cccc(C(=O)Nc5ccc6c(F)c(N7CC(=O)NS7(=O)=O)c(O)cc6c5)c4)c3C2=O)C(=O)N1 (stereo not shown) [Example 61]
200 to 1000 nM	≥ 1000 nM	O=C1CCC(N2Cc3c(NCc4cn(CCC(=O)Nc5ccc6c(F)c(N7CC(=O)NS7(=O)=O)c(O)cc6c5)nn4)cccc3C2=O)C(=O)N1 (stereo not shown) [Example 62]
200 to 1000 nM	≥ 1000 nM	O=C1CCC(N2C(=O)c3ccc(NCc4cnn(C5CN(C(=O)Nc6ccc7c(F)c(N8CC(=O)NS8(=O)=O)c(O)cc7c6)C5)c4)cc3C2=O)C(=O)N1 (stereo not shown) [Example 64]
200 to 1000 nM	≥ 1000 nM	CC(Nc1cccc2c1C(=O)N(C1CCC(=O)NC1=O)C2=O)c1cn(CCC(=O)Nc2ccc3c(F)c(N4CC(=O)NS4(=O)=O)c(O)cc3c2)nn1 (stereo not shown) [Example 66]
200 to 1000 nM	≥ 1000 nM	O=C1CCC(N2C(=O)c3cccc(NCc4cn(C5CCN(CC(=O)Nc6ccc7c(F)c(N8CC(=O)NS8(=O)=O)c(O)cc7c6)CC5)nn4)c3C2=O)C(=O)N1 (stereo not shown) [Example 67]
200 to 1000 nM	≥ 1000 nM	O=C1CCC(N2C(=O)c3cccc(NCc4cn(CCC(=O)Nc5ccc6c(F)c(N7CC(=O)NS7(=O)=O)c(O)cc6c5)nn4)c3C2=O)C(=O)N1 (stereo not shown) [Example 68]
≥ 1000 nM	≥ 1000 nM	O=C1CCC(N2C(=O)c3cccc(NCc4cn(CCC(=O)Nc5ccc6c(Cl)c(N7CC(=O)NS7(=O)=O)c(O)cc6c5)nn4)c3C2=O)C(=O)N1 (stereo not shown) [Example 69]
≥ 1000 nM	≥ 1000 nM	Cn1c(=O)n(C2CCC(=O)NC2=O)c2ccc(C3CCN(C(=O)c4ccc5c(F)c(N6CC(=O)NS6(=O)=O)c(O)cc5c4)CC3)cc21 (stereo not shown) [Example 71]
